Read-outs that look alike come from different tables or passages of the source.
How the values were obtained:
Test in all cases: TGFα-shedding assay-based GPCR screening with chimeric Gα subunit proteins
Format in all cases: cell-based
[1] = molecular target: T1, 348 GPCRs (Homo sapiens, UniProt P23945); settings: 10µM, Favipiravir 100μM
T1 construct: expressed in transfected cells; host or cells: HEK293A
T1 sequence (P23945 18-695): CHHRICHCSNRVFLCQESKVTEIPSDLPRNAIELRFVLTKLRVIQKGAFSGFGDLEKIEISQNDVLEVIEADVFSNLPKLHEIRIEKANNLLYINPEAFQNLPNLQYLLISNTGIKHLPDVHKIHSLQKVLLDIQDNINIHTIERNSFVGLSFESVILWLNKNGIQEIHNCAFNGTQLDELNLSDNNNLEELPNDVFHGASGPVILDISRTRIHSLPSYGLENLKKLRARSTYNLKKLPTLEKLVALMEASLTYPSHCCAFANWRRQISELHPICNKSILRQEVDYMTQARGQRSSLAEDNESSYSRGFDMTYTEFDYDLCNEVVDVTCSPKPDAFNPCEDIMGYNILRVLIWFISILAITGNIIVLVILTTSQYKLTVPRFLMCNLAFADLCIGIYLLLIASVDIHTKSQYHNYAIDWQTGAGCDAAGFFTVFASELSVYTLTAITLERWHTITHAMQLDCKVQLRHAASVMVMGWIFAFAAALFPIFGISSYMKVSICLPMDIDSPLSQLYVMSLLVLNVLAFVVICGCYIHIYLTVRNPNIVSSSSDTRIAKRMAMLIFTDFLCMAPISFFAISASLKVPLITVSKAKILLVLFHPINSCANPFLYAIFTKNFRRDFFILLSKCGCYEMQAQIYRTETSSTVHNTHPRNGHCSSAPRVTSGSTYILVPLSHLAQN

[2] = molecular target: T2, 348 GPCRs (Homo sapiens, UniProt P21452); settings: 10µM, Favipiravir 100μM
T2 construct: expressed in transfected cells; host or cells: HEK293A
T2 sequence (P21452 1-398): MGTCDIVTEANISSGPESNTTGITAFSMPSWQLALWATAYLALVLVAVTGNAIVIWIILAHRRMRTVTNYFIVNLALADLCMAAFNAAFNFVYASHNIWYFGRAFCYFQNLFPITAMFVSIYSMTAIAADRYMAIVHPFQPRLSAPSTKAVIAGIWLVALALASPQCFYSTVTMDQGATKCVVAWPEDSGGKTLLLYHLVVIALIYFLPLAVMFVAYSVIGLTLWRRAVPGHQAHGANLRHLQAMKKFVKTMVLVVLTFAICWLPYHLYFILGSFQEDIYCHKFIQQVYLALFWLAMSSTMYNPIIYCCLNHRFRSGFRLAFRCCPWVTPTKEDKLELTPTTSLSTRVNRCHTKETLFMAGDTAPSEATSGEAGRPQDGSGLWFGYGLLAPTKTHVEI

[3] = molecular target: T3, 348 GPCRs (Homo sapiens, UniProt O43613); settings: 10µM, Favipiravir 100μM
T3 construct: expressed in transfected cells; host or cells: HEK293A
T3 sequence (O43613 1-425): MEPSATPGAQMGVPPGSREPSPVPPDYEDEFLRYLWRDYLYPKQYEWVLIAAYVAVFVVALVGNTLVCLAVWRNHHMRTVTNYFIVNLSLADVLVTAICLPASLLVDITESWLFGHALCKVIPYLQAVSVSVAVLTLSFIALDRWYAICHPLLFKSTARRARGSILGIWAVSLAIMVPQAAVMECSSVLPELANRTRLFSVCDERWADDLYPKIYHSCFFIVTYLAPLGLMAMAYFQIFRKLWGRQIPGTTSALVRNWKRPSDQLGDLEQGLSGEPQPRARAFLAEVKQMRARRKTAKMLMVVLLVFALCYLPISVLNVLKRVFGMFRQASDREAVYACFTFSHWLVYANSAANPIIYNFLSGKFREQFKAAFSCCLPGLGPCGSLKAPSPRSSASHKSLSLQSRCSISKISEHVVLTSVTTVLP

[4] = molecular target: T4, 348 GPCRs (Homo sapiens, UniProt P51677); settings: 10µM, Favipiravir 100μM
T4 construct: expressed in transfected cells; host or cells: HEK293A
T4 sequence (P51677 1-355): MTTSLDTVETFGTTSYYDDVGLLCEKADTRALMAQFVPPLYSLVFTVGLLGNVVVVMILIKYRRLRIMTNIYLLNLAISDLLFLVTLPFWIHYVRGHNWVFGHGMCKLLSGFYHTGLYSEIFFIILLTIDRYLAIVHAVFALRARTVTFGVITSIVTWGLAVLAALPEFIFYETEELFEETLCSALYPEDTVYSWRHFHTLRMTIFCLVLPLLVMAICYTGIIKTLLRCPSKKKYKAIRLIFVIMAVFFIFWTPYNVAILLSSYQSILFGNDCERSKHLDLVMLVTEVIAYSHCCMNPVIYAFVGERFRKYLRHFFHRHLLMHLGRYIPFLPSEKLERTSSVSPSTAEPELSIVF

[5] = molecular target: T5, 348 GPCRs (Homo sapiens, UniProt P29275); settings: 10µM, Favipiravir 100μM
T5 construct: expressed in transfected cells; host or cells: HEK293A
T5 sequence (P29275 1-332): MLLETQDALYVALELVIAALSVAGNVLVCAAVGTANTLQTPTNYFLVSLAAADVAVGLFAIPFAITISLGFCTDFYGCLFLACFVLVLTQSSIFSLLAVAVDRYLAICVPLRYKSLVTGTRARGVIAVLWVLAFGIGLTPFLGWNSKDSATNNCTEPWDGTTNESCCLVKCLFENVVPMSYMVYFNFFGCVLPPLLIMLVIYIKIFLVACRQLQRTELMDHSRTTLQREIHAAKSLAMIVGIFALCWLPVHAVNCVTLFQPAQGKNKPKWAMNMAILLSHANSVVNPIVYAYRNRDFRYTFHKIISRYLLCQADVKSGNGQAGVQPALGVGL

[6] = molecular target: T6, 348 GPCRs (Homo sapiens, UniProt Q8TDV5)
T6 construct: expressed in transfected cells; host or cells: HEK293A
T6 sequence (Q8TDV5 1-335): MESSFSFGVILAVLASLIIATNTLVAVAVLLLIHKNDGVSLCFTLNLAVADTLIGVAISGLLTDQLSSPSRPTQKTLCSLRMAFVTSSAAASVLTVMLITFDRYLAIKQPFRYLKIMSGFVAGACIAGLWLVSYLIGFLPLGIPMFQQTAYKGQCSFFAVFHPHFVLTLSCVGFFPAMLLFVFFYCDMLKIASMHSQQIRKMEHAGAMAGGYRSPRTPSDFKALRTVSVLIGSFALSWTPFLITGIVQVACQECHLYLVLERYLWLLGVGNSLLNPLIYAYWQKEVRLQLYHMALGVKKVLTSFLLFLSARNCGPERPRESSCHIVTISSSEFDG

[7] = FSHR (follicle stimulating hormone receptor), read-out: % GPCR activation compared to TPA
[8] = NK2 (tachykinin receptor 2), read-out: % GPCR activation compared to TPA
[9] = HCRTR1 (hypocretin (orexin) receptor 1), read-out: % GPCR activation compared to TPA
[10] = CCR3 (C-C motif chemokine receptor 3), read-out: % GPCR activation compared to TPA
[11] = ADORA2B (adenosine A2b receptor), read-out: % GPCR activation compared to TPA
[12] = GPCR GPR119 (G protein-coupled receptor 119), read-out: % GPCR activation compared to TPA
[13] = read-out: % GPCR activation compared to TPA, FSHR (follicle stimulating hormone receptor)
[14] = read-out: % GPCR activation compared to TPA, NK2 (tachykinin receptor 2)
[15] = read-out: % GPCR activation compared to TPA, HCRTR1 (hypocretin (orexin) receptor 1)
[16] = read-out: % GPCR activation compared to TPA, CCR3 (C-C motif chemokine receptor 3)
[17] = read-out: % GPCR activation compared to TPA, ADORA2B (adenosine A2b receptor)
[18] = read-out: % GPCR activation compared to TPA, GPCR GPR119 (G protein-coupled receptor 119)

Row | SMILES | activation at 100 µM [1, 7] | activation at 10 µM [2, 8] | activation at 100 µM [3, 9] | activation at 100 µM [4, 10] | activation at 10 µM [5, 11] | activation at 10 µM [6, 12] | activation at 100 µM [1, 13] | activation at 10 µM [2, 14] | activation at 100 µM [3, 15] | activation at 100 µM [4, 16] | activation at 10 µM [5, 17] | activation at 10 µM [6, 18] | activation at 100 µM ([6]; GPCR GPR119 (G protein-coupled receptor 119), 100μM, read-out: % GPCR activation compared to TPA)
1 | N#C[C@@]1(c2ccc3c(N)ncnn23)O[C@H](CO)[C@@H](O)[C@H]1O [GS441524] | 1.25% | 0.00909% | 16.9% | 3.06% | 1.2% | 5.33% |  |  |  |  |  |  | 
2 | CCC(CC)COC(=O)[C@H](C)N[P@](=O)(OC[C@H]1O[C@@](C#N)(c2ccc3c(N)ncnn23)[C@H](O)[C@@H]1O)Oc1ccccc1 [remdesivir] |  |  |  |  |  |  | 2.23% | 1.32% | 16.7% | 7.61% | 1.79% | 7.14% | 
3 | CC(C)OC(=O)[C@H](C)N[P@](=O)(OC[C@H]1O[C@@H](n2ccc(=O)[nH]c2=O)[C@](C)(F)[C@@H]1O)Oc1ccccc1 [sofosbuvir] |  |  |  |  |  |  | 2.02% | -3.34% | -0.162% | -1.65% | 0.00372% | -6.04% | 
4 | NC(=O)c1nc(F)cnc1O [favipiravir, 6-fluoro-3-hydroxy-2-pyrazinecarboxamide] | 3.61% | 1.15% | 12.9% | 2.7% | 1.67% |  |  |  |  |  |  |  | 3.67%
5 | CC(C)C(=O)OC[C@H]1O[C@@H](n2ccc(NO)nc2=O)[C@H](O)[C@@H]1O [molnupiravir] | 0.229% | -2.23% | 1.7% | -0.741% | -1.6% | -26.9% |  |  |  |  |  |  | 
